From ChEMBL document CHEMBL6078622, “Enhancing outer membrane permeability of tetracycline antibiotics in P. aeruginosa using TOB-CIP conjugates” (RSC Med Chem, 2024)
Converted amounts (≈) assume the structure as drawn. The source made the active and inactive calls. The rule behind the calls is not given here.

Assays:
Pseudomonas aeruginosa [1] = assay: Antibacterial activity against Pseudomonas aeruginosa PA101243 assessed as inhibition of visible bacterial growth by CLSI based broth-microdilution method; assay type: functional
Pseudomonas aeruginosa [2] = assay: Antibacterial activity against Pseudomonas aeruginosa PA262 assessed as inhibition of visible bacterial growth by CLSI based broth-microdilution method; assay type: functional
Pseudomonas aeruginosa [3] = assay: Antibacterial activity against Pseudomonas aeruginosa PA095 assessed as inhibition of visible bacterial growth by CLSI based broth-microdilution method; assay type: functional
Pseudomonas aeruginosa [4] = assay: Antibacterial activity against Pseudomonas aeruginosa PA100036 assessed as inhibition of visible bacterial growth by CLSI based broth-microdilution method; assay type: functional
Pseudomonas aeruginosa [5] = assay: Antibacterial activity against Pseudomonas aeruginosa PA259 assessed as inhibition of visible bacterial growth by CLSI based broth-microdilution method; assay type: functional
Pseudomonas aeruginosa [6] = assay: Antibacterial activity against Pseudomonas aeruginosa PA114228 assessed as inhibition of visible bacterial growth by CLSI based broth-microdilution method; assay type: functional
Pseudomonas aeruginosa [7] = assay: Antibacterial activity against Pseudomonas aeruginosa PA200 assessed as inhibition of visible bacterial growth by CLSI based broth-microdilution method; assay type: functional
Pseudomonas aeruginosa [8] = assay: Antibacterial activity against Pseudomonas aeruginosa PA264 assessed as inhibition of visible bacterial growth by CLSI based broth-microdilution method; assay type: functional
Pseudomonas aeruginosa [9] = assay: Synergistic antibacterial activity against Pseudomonas aeruginosa PAO1 assessed as fold change in minocycline MIC by checkerboard analysis relative to minocycline alone; assay type: functional
Acinetobacter baumannii = assay: Antibacterial activity against Acinetobacter baumannii ATCC 17978 assessed as inhibition of visible bacterial growth by CLSI based broth-microdilution method; assay type: functional
HepG2 [10] = assay: Cytotoxicity against human HepG2 cells assessed as reduction in cell viability; assay type: functional
Pseudomonas aeruginosa [11] = assay: Synergistic antibacterial activity against Pseudomonas aeruginosa PAO1 assessed as fold change in doxycycline MIC by checkerboard analysis relative to doxycycline alone; assay type: functional
Pseudomonas aeruginosa [12] = assay: Synergistic antibacterial activity against Pseudomonas aeruginosa PAO1 assessed as fold change in eravacycline MIC by checkerboard analysis relative to eravacycline alone; assay type: functional
Escherichia coli = assay: Antibacterial activity against Escherichia coli ATCC 25922 assessed as inhibition of visible bacterial growth by CLSI based broth-microdilution method; assay type: functional
HEK293 [13] = assay: Cytotoxicity against HEK293 cells assessed as reduction in cell viability at 7 uM; assay type: toxicity, cell-based; settings: human, hek293, 7 µM
Pseudomonas aeruginosa [14] = assay: Synergistic antibacterial activity against Pseudomonas aeruginosa PAO1 assessed as fold change in tigecycline MIC by checkerboard analysis relative to Tigecycline alone; assay type: functional
Pseudomonas aeruginosa [15] = assay: Antibacterial activity against Pseudomonas aeruginosa PAO1 assessed as inhibition of visible bacterial growth by CLSI based broth-microdilution method; assay type: functional
HepG2 [16] = assay: Cytotoxicity against human HepG2 cells assessed as inhibition of cell vitality at 162 uM; assay type: functional; parameters: scale not given: the % may be the effect or the level left
HEK293 [17] = assay: Cytotoxicity against HEK293 cells assessed as reduction in cell viability at 162 uM; assay type: toxicity, cell-based; settings: human, hek293, 162 µM
HepG2 [18] = assay: Cytotoxicity against human HepG2 cells assessed as reduction in cell viability at 400 uM; assay type: functional, cell-based

MIC (Acinetobacter baumannii) [µg/mL]	MIC (Escherichia coli) [µg/mL]	MIC (Pseudomonas aeruginosa [15]) [µg/mL]	Structure (SMILES)	MIC (Pseudomonas aeruginosa [1]) [µg/mL]	MIC (Pseudomonas aeruginosa [2]) [µg/mL]	MIC (Pseudomonas aeruginosa [3]) [µg/mL]	MIC (Pseudomonas aeruginosa [4]) [µg/mL]	MIC (Pseudomonas aeruginosa [5]) [µg/mL]	MIC (Pseudomonas aeruginosa [6]) [µg/mL]	MIC (Pseudomonas aeruginosa [7]) [µg/mL]	MIC (Pseudomonas aeruginosa [8]) [µg/mL]	fold change (FC) (Pseudomonas aeruginosa [9])	Activity (HepG2 [10]) [%]	fold change (FC) (Pseudomonas aeruginosa [11])	fold change (FC) (Pseudomonas aeruginosa [12])	Activity (HEK293 [13])	fold change (FC) (Pseudomonas aeruginosa [14])	Activity (HepG2 [16]) [%]	Activity (HEK293 [17]) [%]	Activity (HepG2 [18])
> 128	> 128	> 120	Cl.Cl.Cl.Cl.Cl.Cl.NC[C@H]1O[C@H](O[C@H]2[C@H](OCCCCCCCCNC(=O)c3cn(C4CC4)c4cc(N5CCNCC5)c(F)cc4c3=O)[C@@H](O[C@H]3O[C@H](CO)[C@@H](O)[C@H](N)[C@H]3O)[C@H](N)C[C@@H]2N)[C@H](N)C[C@@H]1O									4	69	4	4	Non-toxic	4	55		
> 128	> 128	> 120	Cl.Cl.Cl.Cl.Cl.Cl.NC[C@H]1O[C@H](O[C@H]2[C@H](OCc3ccc(-c4ccc(CNC(=O)c5cn(C6CC6)c6cc(N7CCNCC7)c(F)cc6c5=O)cc4)cc3)[C@@H](O[C@H]3O[C@H](CO)[C@@H](O)[C@H](N)[C@H]3O)[C@H](N)C[C@@H]2N)[C@H](N)C[C@@H]1O									16	88	16	16	Non-toxic	16	40	27	Active
> 128	> 128	> 120	CC(=O)NCCCCCCCCCCCCO[C@@H]1[C@@H](O[C@H]2O[C@H](CO)[C@@H](O)[C@H](N)[C@H]2O)[C@H](N)C[C@H](N)[C@H]1O[C@H]1O[C@H](CN)[C@@H](O)C[C@H]1N.Cl.Cl.Cl.Cl.Cl									4		8			1			
> 128	> 128	> 120	Cl.Cl.Cl.Cl.Cl.Cl.NC[C@H]1O[C@H](O[C@H]2[C@H](OCCOCCOCCOCCNC(=O)c3cn(C4CC4)c4cc(N5CCNCC5)c(F)cc4c3=O)[C@@H](O[C@H]3O[C@H](CO)[C@@H](O)[C@H](N)[C@H]3O)[C@H](N)C[C@@H]2N)[C@H](N)C[C@@H]1O										60			Non-toxic		60		

More lines, now with the values behind:

Structure (SMILES)	MIC (Acinetobacter baumannii) [µg/mL]	MIC (Escherichia coli) [µg/mL]	MIC (Pseudomonas aeruginosa [15]) [µg/mL]	MIC (Pseudomonas aeruginosa [1]) [µg/mL]	MIC (Pseudomonas aeruginosa [2]) [µg/mL]	MIC (Pseudomonas aeruginosa [3]) [µg/mL]	MIC (Pseudomonas aeruginosa [4]) [µg/mL]	MIC (Pseudomonas aeruginosa [5]) [µg/mL]	MIC (Pseudomonas aeruginosa [6]) [µg/mL]	MIC (Pseudomonas aeruginosa [7]) [µg/mL]	MIC (Pseudomonas aeruginosa [8]) [µg/mL]	fold change (FC) (Pseudomonas aeruginosa [9])	Activity (HepG2 [10]) [%]	fold change (FC) (Pseudomonas aeruginosa [11])	fold change (FC) (Pseudomonas aeruginosa [12])	Activity (HEK293 [13])	fold change (FC) (Pseudomonas aeruginosa [14])	Activity (HepG2 [16]) [%]	Activity (HEK293 [17]) [%]	Activity (HepG2 [18])
C[C@H]1c2cccc(O)c2C(=O)C2=C(O)[C@]3(O)C(=O)C(C(N)=O)=C(O)[C@@H](N(C)C)[C@@H]3[C@@H](O)[C@@H]21 [DOXYCYCLINE ANHYDROUS]				16 (≈ 36 µM)	> 512	64 (≈ 144 µM)	> 128	64 (≈ 144 µM)	64 (≈ 144 µM)	1 (≈ 2.25 µM)	> 64									
NC[C@H]1O[C@H](O[C@H]2[C@H](O)[C@@H](O[C@H]3O[C@H](CO)[C@@H](O)[C@H](N)[C@H]3O)[C@H](N)C[C@@H]2N)[C@H](N)C[C@@H]1O [TOBRAMYCIN]	0.5 (≈ 1.07 µM)	2 (≈ 4.28 µM)	0.5 (≈ 1.07 µM)																	
CN(C)c1ccc(O)c2c1C[C@H]1C[C@H]3[C@H](N(C)C)C(O)=C(C(N)=O)C(=O)[C@@]3(O)C(O)=C1C2=O [MINOCYCLINE]				8 (≈ 17.5 µM)	256 (≈ 560 µM)	64 (≈ 140 µM)	128 (≈ 280 µM)	128 (≈ 280 µM)	256 (≈ 560 µM)	0.5 (≈ 1.09 µM)	128 (≈ 280 µM)									
CN(C)c1cc(NC(=O)CNC(C)(C)C)c(O)c2c1C[C@H]1C[C@H]3[C@H](N(C)C)C(O)=C(C(N)=O)C(=O)[C@@]3(O)C(O)=C1C2=O [TIGECYCLINE]				8 (≈ 13.7 µM)	64 (≈ 109 µM)	32 (≈ 54.6 µM)	64 (≈ 109 µM)	32 (≈ 54.6 µM)	64 (≈ 109 µM)	1 (≈ 1.71 µM)	32 (≈ 54.6 µM)									
CN(C)[C@@H]1C(O)=C(C(N)=O)C(=O)[C@@]2(O)C(O)=C3C(=O)c4c(O)c(NC(=O)CN5CCCC5)cc(F)c4C[C@H]3C[C@@H]12 [ERAVACYCLINE]				8 (≈ 14.3 µM)	64 (≈ 115 µM)	32 (≈ 57.3 µM)	32 (≈ 57.3 µM)	32 (≈ 57.3 µM)	16 (≈ 28.6 µM)	0.5 (≈ 0.895 µM)	32 (≈ 57.3 µM)									
CCCCCCCCCCCCNC(=O)c1cn(C2CC2)c2cc(N3CCNCC3)c(F)cc2c1=O.Cl	> 128	> 128	> 120																	
